From patent EP4613273A1, “TREATMENT OF BONE LOSS” (priority 2024, dated 2025)
Structures can show the parent of a compound that is named as a salt.

What was measured:
Assay type in all cases: in vivo
[1] = MIV-701/MIV-06404 plasma exposure ratio in dog; settings: single oral administration, exposure ratio (peak area)
Procedure: (§1) Compound Ib besylate salt (referred to as MIV-701 besylate salt) was administered once daily for 14 days to 3 healthy beagle dogs at three different doses: 1 mg/kg, 10 mg/kg and 100 mg/kg.
(§2) Each treatment period can be resumed as follows: • J0 (T+24h): first Compound Ib besylate salt administration, withdrawal of blood samples for pharmacokinetic and plasma CTX-1 assessment (pre-dose and 0.5h, 1h, 2h, 4h, 8h and 24h after drug administration), pre-dose blood samples for hematology and clinical biochemistry (baseline values for safety assessment). • J1 to J12: pre-dose blood samples • J13: last Compound Ib besylate salt administration, withdrawal of plasma samples for pharmacokinetic and plasma CTX-1 assessment (pre-dose and 0.5h, 1h, 2h, 4h, 8h and 24h after drug administration), pre-dose sampling for hematology and clinical biochemistry (baseline values for safety assessment). • J15-J≥19: washout period.
After centrifugation of blood samples plasma aliquots were stored at -20°C. After thawing on ice, 30 µL of plasma were transferred into 1.5 ml microtube containing 270 µL acetonitrile. Microtubes were then vigorously stirred and then centrifuged (12000 rpm, 10 min, 4°C) and the supernatant was transferred in Matrix tube for LC-MS/MS analysis. Calibration curve (9 points, 3 to 30 000 nM) was obtained by spiking plasma samples from naive dogs with appropriate quantities of Compound Ib.
Equipment: LC-MS/MS Acquity I Class-Wevo TQD (Waters®): - Acquity I Class ∘ Column: Waters® Acquity BEH C8, 50*2.1mm, 1.7 µm (40°C) ∘ Mobile phase: • ▪ A: Ammonium Formate 5mM, pH=3.8 • ▪ B: Ammonimuformate 5 mM in CH3CN 5% aqueous, pH=3.8 ∘ Injection volume: 1 µL ∘ Speed: 600 µL/min ∘ Gradient: […]
- Xevo TQD ∘ Source temperature: 150°C ∘ Desolvatation temperature: 600°C ∘ Cone gaz speed: 50L/h ∘ Desolvatation gaz speed: 1200L/h - Analytes MS characteristics

CTX-1 = test: Plasma CTX-1 (bone resorption marker) in healthy beagle dogs
Procedure: as §1
(§3) The doses were consecutively administered for 14 days with a >5-day washout period between two dose levels.
as §2

[2] = Safety of 14-day repeated oral administration in healthy beagle dogs
Procedure: as §1, §3, §2

[3] = system: dogs with alveolar bone loss induced by spontaneously developed periodontal disease; test: Alveolar bone loss parameters by CBCT-scan and X-ray radiography in dogs with periodontal disease; settings: CTX-1 responders, Day-90 vs Day-0
Procedure: The present study was performed on 10 Beagle dogs suffering from alveolar bone loss induced by spontaneously developed periodontal disease. All dogs were treated with MIV-701 besylate salt for minimum 30 day and maximum 90 days, depending on the tolerance at intermediate visits. The product is administrated to the dog by its owner at home, once a day with a meal.
There were two treatment groups: • Group A (5 dogs) with a dose of 25 mg/kg. • Group B (5 dogs) with a dose of 50 mg/kg.
Dental imaging was performed at visit V2 (Day 0) and visit V5 (90t 3 days).
Each time a full mouth CBCT-scan was performed together with dental radiographs of selected teeth for the study. The results of these exams were recorded in IMAGING FORM by the Investigator.
Full mouth cone-beam computed tomography (NewTom, 5G XL, Bologna, Italy) was performed at visit V2 (Day 0) and visit V5 (Day 90t 3 days).
The exam was performed only in dogs recruited in Polish site. It was performed under general anesthesia of Investigator's choice and aim at alveolar bone loss measurement.
Scans were analyzed with the use of NNT viewer, software provided by the manufacturer (version: 10.1; QR SRL, Verona, Italy). At both times, the volumetric assessment of dentition was set up for the same high-resolution mode (10 × 10 cm with 0.15 mm layers). Both readings were made in the same orientations of axes and locations measuring alveolar bone loss with the use of maximum magnification (Gawro, Strøm et Nemec 2022). To evaluate the effect of the treatment on the alveolar bone loss, the following three measurements (De Faria Vasconcelos et al. 2012) were performed on the selected teeth for the study: • 1. The height of the alveolar crest (AC), measured from the cementoenamel junction (CEJ) to the upper rim of AC (Figure 12A). • 2. The depth of the defect, measured from the CEJ to the bottom of the defect (Figure 12B). • 3. The width of the defect, measured from the highest point of the AC to the dental root adjacent to the defect (Figure 12C).
Dental radiography was performed at visit V2 (Day 0) and visit V5 (Day 90t 3 days).
To evaluate the effect of the treatment on the alveolar bone loss, the following three measurements (De Faria Vasconcelos et al. 2012) were performed on the selected teeth for the study: • 1. The heigh of the alveolar crest (AC), measured from the cementoenamel junction (CEJ) to the upper rim of AC (Figure 13A). • 2. The depth of the defect, measured from the CEJ to the bottom of the defect (Figure 13B). • 3. The width of the defect, measured from the highest point of the AC to the dental root adjacent to the defect (Figure 13C).
These measurements were performed using digital ruler of the imaging software or external program (i.e., Image J) and recorded in the IMAGING FORM.

SMILES: CC(C)C[C@H](NC(=O)c1ccc(-c2csc(N3CCN(C)CC3)n2)cc1)C(=O)N1C[C@H](F)[C@H]2OCC(O)(O)[C@H]21 [MIV-701 besylate salt, N-[(S)-1-((3aS,6S,6aS)-6-Fluoro-S-oxo-hexahydro-furo[3,2-b]pyrrole-4-carbony)-3-methyl-butyl]-4-[2-(4-methyl-piperazin-1-yl)-thiazol-4-yl]-benzamide benzenesulphonate]
- MIV-701/MIV06404 ratio ([1]; 1 mg/kg): 7.0
- MIV-701/MIV06404 ratio ([1]; 10 mg/kg): 3.6
- MIV-701/MIV06404 ratio ([1]; 100 mg/kg): 3.3
- inhibition of pre-dose plasma CTX-1 vs baseline (CTX-1; 10 mg/kg once a day, D1 to end of 14 days): 40%
- time of CTX-1 inhibition peak after administration (CTX-1; D0, three doses tested): 8 h
- pre-dose plasma CTX-1 during repeated administration (CTX-1; once a day oral, D1 to end of 14 days): dose-dependent inhibition
- CTX-1 plasma concentration 24 hours after administration (CTX-1; single dose 10mg/kg and 100 mg/kg): did not go back to pre-dose concentration
- effect on plasma CTX-1 (CTX-1; single oral administration (D0) at 1 mg, 10 mg and 100 mg): dose-dependent effect
- tolerance ([2]; oral once daily for 14 days, 1, 10 and 100 mg/kg): well tolerated at all doses
- signs of toxicity ([2]; oral once daily for 14 days, regardless of the dose): No obvious signs of toxicity
- depth of the alveolar bone defect ([3]; CBCT-images): Only favorable trends
- width of the alveolar bone defect ([3]; CBCT-scan and X-ray radiography): significantly reduced
- height of the alveolar crest ([3]; CBCT-scan images): Significant improvements
- depth of the alveolar bone loss ([3]; X-ray images): significant improvements
- height of the alveolar crest ([3]; X-ray radiography): only favorable trends
